Test results taken from PubChem BioAssay AID623934 (Southern Research Specialized Biocontainment Screening …, 2012).
Activity calls are given as the source filed them. The rule behind the calls is not given here.

What was measured:
[1] = cell protection from WNV infection – EC_3, dose response (AID 623934); settings: West Nile virus infected cells, antiviral cytopathic protection
[2] = tested on: West Nile virus infected cells, antiviral cytopathic protection; assay: as above

| Compound | EC50 [2] [µM] | inhibition ([1]; at 100 µM (top of the series)) | further results |
| --- | --- | --- | --- |
| Cc1cc(-n2c(SCC(=O)c3nc(-c4ccccc4)cs3)nc3ccccc3c2=O)ccc1Cl |  |  | inhibition ([1]; at 50 µM (top of the series)): 3.94% (inactive) |
| O=C(CSc1nc2ccccc2c(=O)n1-c1cc(F)cc(F)c1)Nc1ccc2c(c1)CCC2 | 11.4 |  |  |
| O=C(CSc1nc2ccccc2c(=O)n1-c1ccccc1)Nc1ccc2c(c1)CCC2 | 26.8 |  |  |
| O=C(CSc1nc2ccccc2c(=O)n1-c1c(Cl)cccc1Cl)Nc1nc(-c2ccccc2)cs1 |  | 1.54% (inactive) |  |
| O=C(CSc1nc2c(F)cccc2c(=O)n1-c1ccccc1)Nc1nc(-c2ccccc2)cs1 |  | 3.49% (inactive) |  |
| Cc1cc(-n2c(SCC(=O)Nc3nc(-c4ccccc4)cs3)nc3ccccc3c2=O)ccc1F |  | 4.72% (inactive) |  |
| O=C(CSc1nc2ccccc2c(=O)n1-c1cc(F)c(F)cn1)Nc1ccc2c(c1)CCC2 | 18.5 |  |  |
| O=C(CSc1nc2ccccc2c(=O)n1-c1ccc(Cl)c(F)c1)Nc1ccc2c(c1)CCC2 |  | 7.41% (inactive) |  |
| N#Cc1ccc(-n2c(SCC(=O)Nc3ccc4c(c3)CCC4)nc3ccccc3c2=O)cc1F |  | 2.03% (inactive) |  |
| Cc1ccc(-n2c(SCC(=O)c3nc(-c4ccccc4)cs3)nc3ccccc3c2=O)cc1Br |  | 4.12% (inactive) |  |
| O=C(CSc1nc2ccccc2c(=O)n1-c1ccc(Cl)c(Cl)c1)Nc1ccc2c(c1)CCC2 |  | 24.8% (inactive) |  |
| O=C(CSc1nc2ccccc2c(=O)n1-c1c(Cl)cccc1Cl)c1nc(-c2ccccc2)cs1 |  | 3.02% (inactive) |  |
| Cc1cc(-n2c(SCC(=O)Nc3nc(-c4ccccc4)cs3)nc3ccccc3c2=O)ccc1Cl |  | 5.12% (inactive) |  |
| O=C(CSc1nc2ccccc2c(=O)n1-c1ccccn1)Nc1nc(-c2ccccc2)cs1 |  | 3.87% (inactive) |  |
| O=C(CSc1nc2c(Cl)cccc2c(=O)n1-c1cc(Cl)cc(Cl)c1)Nc1nc(-c2ccccc2)cs1 |  | 5.19% (inactive) |  |
| O=C(CSc1nc2ccccc2c(=O)n1-c1ccc(Cl)c(F)c1)c1nc(-c2ccccc2)cs1 |  | 4.16% (inactive) |  |
| N#Cc1ccc(-n2c(SCC(=O)Nc3ccc4c(c3)CCC4)nc3ccccc3c2=O)cc1 |  | 8.15% (inactive) |  |
| O=C(CSc1nc2cccc(F)c2c(=O)n1-c1cc(Br)c(F)cn1)Nc1ccc2c(c1)CCC2 |  | 3.79% (inactive) |  |
| O=C(CSc1nc2ccccc2c(=O)n1-c1cc(F)cc(F)c1)Nc1nc(-c2ccccc2)cs1 |  | 3.67% (inactive) |  |
| O=C(CSc1nc2c(F)cccc2c(=O)n1-c1cc(Cl)cc(Cl)c1)Nc1nc(-c2ccccc2)cs1 |  | 3.92% (inactive) |  |
| O=C(CSc1nc2ccccc2c(=O)n1-c1ccc(Cl)c(Br)c1)Nc1nc(-c2ccccc2)cs1 |  | 4.48% (inactive) |  |

| Compound | EC50 [2] [µM] | inhibition ([1]; at 100 µM (top of the series)) | further results |
| --- | --- | --- | --- |
| Cc1ccc(-n2c(SCC(=O)Nc3ccc4c(c3)CCC4)nc3ccccc3c2=O)cc1Br | 8.28 |  |  |
| O=C(CSc1nc2c(F)cccc2c(=O)n1-c1cc(Cl)cc(Cl)c1)Nc1ccc2c(c1)CCC2 | 11.4 |  |  |
| O=C(CSc1nc2ccccc2c(=O)n1-c1ccc(Cl)c(Cl)c1)Nc1nc(-c2ccccc2)cs1 |  | 4.05% (inactive) |  |
| Cc1cc(-n2c(SCC(=O)Nc3ccc4c(c3)CCC4)nc3ccccc3c2=O)ccc1F | 6.66 |  |  |
| O=C(CSc1nc2ccccc2c(=O)n1-c1c(Cl)cccc1Cl)Nc1ccc2c(c1)CCC2 | 13 |  |  |
| Cc1cc(-n2c(SCC(=O)Nc3ccc4c(c3)CCC4)nc3ccccc3c2=O)ccc1Cl | 4.22 |  |  |
| N#Cc1ccc(-n2c(SCC(=O)Nc3nc(-c4ccccc4)cs3)nc3ccccc3c2=O)cc1 |  | 6.44% (inactive) |  |
| N#Cc1ccc(-n2c(SCC(=O)c3nc(-c4ccccc4)cs3)nc3ccccc3c2=O)cc1 |  | 3.25% (inactive) |  |
| N#Cc1ccc(-n2c(SCC(=O)Nc3nc(-c4ccccc4)cs3)nc3ccccc3c2=O)cc1F |  | 5.78% (inactive) |  |
| O=C(CSc1nc2c(F)cccc2c(=O)n1-c1ccc(Cl)c(Cl)c1)Nc1ccc2c(c1)CCC2 | 9.43 |  |  |
| Cc1cc(-n2c(SCC(=O)c3nc(-c4ccccc4)cs3)nc3ccccc3c2=O)ccc1F |  | 3.75% (inactive) |  |
| O=C(CSc1nc2cccc(F)c2c(=O)n1-c1ccc(Cl)c(Cl)c1)Nc1ccc2c(c1)CCC2 | 15.4 | 3.14% (inactive) |  |
| O=C(CSc1nc2c(F)cccc2c(=O)n1-c1ccc(Cl)c(Cl)c1)Nc1nc(-c2ccccc2)cs1 |  | 5.8% (inactive) |  |
| O=C(CSc1nc2ccccc2c(=O)n1-c1cc(F)cc(F)c1)c1nc(-c2ccccc2)cs1 |  | 6.41% (inactive) |  |
| O=C(CSc1nc2c(Cl)cccc2c(=O)n1-c1cc(Cl)cc(Cl)c1)Nc1ccc2c(c1)CCC2 |  | 5.62% (inactive) |  |
| O=C(CSc1nc2ccccc2c(=O)n1-c1cc(Cl)c(F)cn1)Nc1ccc2c(c1)CCC2 | 24.4 |  |  |
| O=C(CSc1nc2cccc(F)c2c(=O)n1-c1ccc(Cl)c(Cl)c1)Nc1nc(-c2ccccc2)cs1 |  | 3.12% (inactive) |  |
| O=C(CSc1nc2ccccc2c(=O)n1-c1ccccn1)Nc1ccc2c(c1)CCC2 |  | 2.47% (inactive) |  |
| O=C(CSc1nc2ccccc2c(=O)n1-c1ccc(Cl)c(Br)c1)Nc1ccc2c(c1)CCC2 | 13.7 |  |  |
| O=C(CSc1nc2c(F)cccc2c(=O)n1-c1ccccc1)Nc1ccc2c(c1)CCC2 | 17.3 |  |  |
